Results reported in US20240252440A1, “COMPOSITIONS, METHODS AND SYSTEMS FOR AEROSOL DRUG DELIVERY” (ASTRAZENECA PHARMACEUTICALS LP, priority 2021, published 2024).

Assay: Particle size distribution by laser diffraction
Assay type: physicochemical
From the text: When referred to herein, the term “optical diameter” indicates the size of a particle as measured by the Fraunhofer diffraction mode using a laser diffraction particle size analyzer equipped with a dry powder dispenser (e.g., Sympatec GmbH, Clasthal-Zellerfeld, Germany).
Suspending particles were manufactured by spray drying an emulsion of PFOB (perfluorooctyl bromide) and water stabilized by DSPC (1,2-Distearoyl-sn-Glycero-3-Phosphocholine). […] The particle size distribution of the suspending particles was determined by laser diffraction.
Active agent particles formed of budesonide, 16,17-(butylidenebis(oxy))-11,21-dihydroxy-(11-β,16-α)-pregna-1,4-diene-3,20-dione, were formed by micronizing budesonide using a jet mill. The particle size distribution of the budesonide (BD) was determined by laser diffraction.

Molecule	optical diameter exhibited by 50% by volume of the particles	optical diameter exhibited by 90% by volume of the particles
COc1ccc(CC(C)NCC(O)c2ccc(O)c(NC=O)c2)cc1.O=C(O)/C=C/C(=O)O (racemic) [formoterol fumarate, (±)-2-hydroxy-5-[(1RS)-1-hydroxy-2-[[(1RS)-2-(4-methoxyphenyl)-1-methylethyl]-amino]ethyl]formanilide fumarate]	smaller than 1.6 μm	smaller than 3.9 μm
C[N+]1(C)CCC(OC(=O)C(O)(c2ccccc2)C2CCCC2)C1.[Br-] (stereo not drawn) [glycopyrrolate, Pyrrolidinium, 3-((cyclopentylhydroxyphenylacetyl)oxy)-1,1-dimethyl-, bromide]	smaller than 2.1 μm	smaller than 5 μm
albuterol sulfate	smaller than 1.5 μm	smaller than 3.3 μm
